Assay results from the supplement of paper PMC8837787.

System: Saccharomyces cerevisiae ABC16-Green Monster
Assay: growth inhibition at single dose (up to 150 µM), below the 70% cut-off for dose-response; higher = more potent
Details: 18 h; 30 °C; YPD
In short: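 The entry is percent growth inhibition of drug-sensitive S. cerevisiae ABC16-Green Monster cells. After overnight growth in YPD at 30 °C, cells were diluted to OD600 0.1–0.2 and exposed to each library compound at 150 µM in 200 µl per well, in biological duplicates with untreated cultures beside them, and OD600 was read at 0 h and after 18 h at 30 °C. Any compound under 70% in both replicates was not carried to dose-response.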

Compound	growth inhibition at single dose [%]
CCOc1cc2c(cc1OCC)C(c1cc(OC)c(O)cc1Cl)NCC2 (centres undefined)	< 70
CS(=O)(=O)c1ccccc1C(=O)N(Cc1ccccc1)c1ccccc1	< 70
CCCCCCc1cc(O)c2c3c(c(=O)oc2c1)CCC(C)C3 (centres undefined)	< 70
COc1ccc(C2=NN(C3CCCCCC3)C(=O)C2(C)C)cc1OCCCCOc1ccc(-c2nn[nH]n2)cc1	< 70
O=c1nc(-c2ccccn2)[nH]c2scc(-c3ccccc3)c12	< 70
O=C1N=C(Nc2cccnc2)S/C1=C/c1ccc2ncccc2c1	< 70
COc1cc(C(=O)c2c(N)c(C#N)cn3c2nc2ccccc23)cc(OC)c1OC	< 70
O=C1Nc2ccc(Br)cc2C12NCCc1c2[nH]c2ccccc12 (centres undefined)	< 70
CN1CCN(c2ccc(NC(=O)c3csc4c3CCCC4)cc2)CC1	< 70
CC(NC(=O)c1cccc(Nc2ncccn2)c1)c1cccc(C(F)(F)F)c1 (centres undefined)	< 70
COc1cccc(C(=O)NC(c2ccc(C)cc2)c2cc(Cl)c3cccnc3c2O)c1 (centres undefined)	< 70
CC(C)(C)c1ccc(C(=O)NCCOc2ccccc2Cl)cc1	< 70
CN(C)CCNc1nc(-c2ccco2)c2c(c1C#N)CCCC2	< 70
CN(C)CCCNc1c2ccccc2nc2ccccc12	< 70
CSc1nc2ccc(NC(=O)c3cn4ccccc4n3)cc2s1	< 70
COc1ccc(NC(=O)c2ccoc2)cc1S(=O)(=O)Nc1ccc(Br)cc1	< 70
COC(=O)c1ccc(C2C3=C(O)CC(c4ccc(F)cc4)CC3=Nc3ccccc3N2C(=O)c2ccccc2)cc1 (centres undefined)	< 70
c1ccc(Nc2nc(-c3ccc4c(c3)OCCO4)cs2)nc1	< 70
CCOc1ccc(-c2nc(NC(=O)c3cccc(S(C)(=O)=O)c3)sc2C)cc1	< 70
Cc1cc(C(=O)COC(=O)c2[nH]nc3ccccc23)c(C)n1Cc1cccs1	< 70
O=c1cc(NC2CCN(CCCc3ccccc3)CC2)c2cc(Cl)ccc2o1	< 70
COc1cc(OC)cc(N2C(=O)N(Cc3ccc(C(C)(C)C)cc3)c3ccccc3S2(=O)=O)c1	< 70
C[C@H](C(N)=O)N1CCCC[C@H]1c1ccc(OCc2cccc(F)c2)cc1	< 70

Compound	growth inhibition at single dose [%]
Cc1ccc(/C=C2\CCc3c2nc2ccccc2c3C(=O)OCC#N)cc1	< 70
Cc1ccc(NC(=O)c2cnn(C(C)(C)C)c2C)cc1F	< 70
CC(=O)NC(C)CCc1ccc(C(=O)Cn2ncc(Cl)c(Cl)c2=O)cc1 (centres undefined)	< 70
c1ccc2c(NCc3ccc(N4CCCC4)nc3)ncnc2c1	< 70
O=C(Nc1ccc2c(c1)OC1(CCCCC1)O2)c1ccc[nH]c1=S	< 70
O=C(Nc1ccc2nc(-c3ccccc3Cl)[nH]c2c1)c1ccc(=O)[nH]n1	< 70
Cn1ncc2c(N3CCN(CC(=O)Nc4nc(-c5c[nH]c6ccccc56)cs4)CC3)ncnc21	< 70
O=C(Nc1cccc(Cl)c1)c1cnc(N2CCN(c3ccncc3)CC2)c(Cl)c1	< 70
CC(C)Cn1c(N)c(C(=O)CSc2nnc(COc3ccccc3Cl)o2)c(=O)n(C)c1=O	< 70
CCOC(=O)C1CCN(C(=O)CN2C(=O)c3ccccc3C2c2c[nH]c3ccccc23)CC1 (centres undefined)	< 70
C=CCn1c[n+](C2=C(NS(=O)(=O)c3ccc(C)cc3)C(=O)c3ccccc3C2=O)c2ccccc21	< 70
CCOC(=O)c1c(C)[nH]c(C(=O)CSc2nnc(C3CC3)n2N)c1C	< 70
CCCc1ccc(-c2nc(-c3ccccc3)no2)cc1	< 70
O=C(NC1CCN(Cc2ccccc2)CC1)c1cc(C(=O)NC2CCN(Cc3ccccc3)CC2)cc(C(=O)NC2CCN(Cc3ccccc3)CC2)c1	< 70
Cc1cc(C)c2nc(N3CCC(C(=O)NCCCN4CCC(N5CCCCC5)CC4)CC3)sc2c1	< 70
Cn1c(=O)n(C)c2cc(CNCCNc3ccnc4cc(Cl)ccc34)ccc21	< 70
FC(F)(F)c1ccc(Nc2nnnc3ccccc23)cc1	< 70
CCOC(=O)c1c[nH]c2c(C)cc(Cl)cc2c1=O	< 70
O=[N+]([O-])c1ccc(C=NNc2nc3ccccc3[nH]2)cc1	< 70
COC(=O)c1c(NC(=O)c2cc3ccccc3oc2=O)sc2c1CCN(Cc1ccccc1)C2	< 70
Cc1cc(C)c2c(c1)OCN(Cc1ccccc1Cl)C2	< 70
Cc1cccc2nc(C(=O)Nc3ccc4c(c3)nc3n4CCCCC3)cn12	< 70
O=c1nc(CCc2ccc3c(c2)OCCO3)[nH]c2ccccc12	< 70

Compound	growth inhibition at single dose [%]
CC(C)(C)CC(C)(C)NCC(O)COc1ccc(Cl)cc1Cl (centres undefined)	< 70
Cc1cc(C(=O)COc2ccc(C(N)=O)cc2)c(C)n1-c1ccc2c(c1)OCO2	< 70
COC(=O)c1c(C)[nH]c(C2=NNC(=NC3CC3)SC2)c1C	< 70
c1ccc2c(NCCc3c[nH]c4ccccc34)c3ccccc3nc2c1	< 70
COc1cccc(NC(=O)[C@H](C(C)C)n2c(=O)[nH]c3ccccc3c2=O)c1	< 70
COc1cc(C(F)(F)F)nc2ccc(C)c(N)c12	< 70
CC(=O)Nc1ccc(NC(=O)c2cc(-c3cc(Cl)ccc3O)[nH]n2)cc1	< 70
CC(=O)NC[C@H]1CN(c2ccc(N3CCSCC3)c(F)c2)C(=O)O1	< 70
Cc1cc(C)nc(SCC(=O)N2CCN(C(=O)c3ccco3)CC2)n1	< 70
Cc1c(C)n(CCN(C)C)c2ncn3nc(-c4ccccc4O)nc3c12	< 70
Cc1[nH]c2ccccc2c1/C=N/n1c(-c2ccc(Cl)cc2Cl)cs/c1=N\CC1CCCO1 (centres undefined)	< 70
CC(=O)c1sc(NC(=O)Nc2ccc(C)cc2C)nc1C	< 70
O=C(Nc1cc(Cl)cc(Cl)c1)c1cc(Br)ccc1O	< 70
OCC1CCCN(c2nn3cc(-c4ccccc4)nc3s2)C1 (centres undefined)	< 70
CCN(CC)c1ccc(NC(=O)c2cccs2)cc1	< 70
CN(N=O)C1=C(NC2CCCCC2)C(=O)c2ccccc2C1=O	< 70
CCCn1nc(C(=O)Nc2ccccc2N2CCc3ccccc3C2)ccc1=O	< 70
COc1ccc(-c2c(C)nn3c(NCc4ccccn4)cc(C)nc23)cc1OC	< 70
O=C(Nc1ccccc1-c1nc2c(C(=O)O)cccc2o1)c1ccccc1	< 70
CCc1nc2ccc(Cl)cn2c1C(=O)NCc1ccc(N2CCC(c3ccc(OC(F)(F)F)cc3)CC2)cc1	< 70
COc1ccc2c(c1)OC(O)(C(F)(F)C(F)(F)F)CC2=O (centres undefined)	< 70
CCOC(=O)C1=C(C)N=c2sc(=Cc3ccccc3O)c(=O)n2C1c1ccc(OC)c2ccccc12 (centres undefined)	< 70
CN(CC(=O)Nc1ccc(Cl)c(C(F)(F)F)c1)Cc1ccc(O)c2ncccc12	< 70

Compound	growth inhibition at single dose [%]
CS(=O)(=O)N1CCCc2cc(-c3csc(Nc4ccccn4)n3)ccc21	< 70
Cc1ccc(C(NCC(=O)Nc2sccc2C(N)=O)c2cccs2)cc1 (centres undefined)	< 70
CCOc1cc(Cl)c(C(C)NC(=O)c2ccccc2)cc1OCC (centres undefined)	< 70
CCCCS(=O)(=O)Nc1ccc2cnn(C)c2c1	< 70
COCC(C)n1c(C)cc(C(=O)CSc2ccc(NC(C)=O)cc2)c1C (centres undefined)	< 70
COc1cccc(C(=O)Nc2ccc(-c3nc4ccccc4[nH]3)cc2)c1	< 70
COc1cc(C2=NCCN2)ccc1-c1cn(-c2cccc(C3=NCCN3)c2)nn1	< 70
CCCC(c1nnnn1C1CCCCC1)N1CCN(C(=O)c2ccco2)CC1 (centres undefined)	< 70
Cc1cc(=O)nc(N/N=C/c2c(C)nn(-c3cccc(C(F)(F)F)c3)c2Cl)[nH]1	< 70
COc1ccc(-c2nc(-c3cccc(NC(=O)Cc4ccc(F)cc4)c3)no2)cc1OC	< 70
CCCCNc1nc(NC(C)(C)C)nc(NC(C)(C)C)n1	< 70
CC(NCc1ccccc1)c1cc(Cl)ccc1O (centres undefined)	< 70
Cc1ccc(C(=O)Nc2ccc(S(=O)(=O)O)c3cc(S(=O)(=O)O)cc(S(=O)(=O)O)c23)cc1NC(=O)c1cccc(NC(=O)Nc2cccc(C(=O)Nc3cc(C(=O)Nc4ccc(S(=O)(=O)O)c5cc(S(=O)(=O)O)cc(S(=O)(=O)O)c45)ccc3C)c2)c1	< 70
O=C1C2=C(Nc3ccccc3SC2c2ccccc2)c2ccccc21 (centres undefined)	< 70
c1ccc(C[C@@H]2CN(c3nccc(Oc4ccc(-n5ccnc5)cc4)n3)CCN2)cc1	< 70
O=C(Nc1cccc(-c2nc3ccccc3[nH]2)c1)c1cccc(NC(=O)c2ccco2)c1	< 70
CC(C)n1ncc2cc(C(=O)Nc3nc4c(s3)CCCC4)cnc21	< 70
CCCn1c(=N)c(C(=O)NC2CCCCC2)cc2c(=O)n3cccc(C)c3nc21	< 70
Cc1ccc(Cn2c(N3CCC(C(=O)NCc4cccs4)CC3)nc3ccccc32)cc1	< 70
COc1ccc(-c2cc(=O)oc3c4c(ccc23)OCN(Cc2ccc(F)cc2)C4)cc1	< 70
